For 1 compound, Activity, IC50 and inhibition results are on record in ChEMBL document CHEMBL5518189, “Design, synthesis and biological evaluation of 1,2,3-triazole benzothiazole derivatives as tubulin polymerization inhibitors with potent anti-esophageal cancer activities” (Eur J Med Chem, 2024).

The subject of assay [1] is ECa-109 cell line. Kind of assay: Induction of cell cycle arrest in human EC109 cells assessed as effect on cyclinB1 level at 40 to 60 nM measured after 48 hrs by Western blot analysis. The settings on record: dose 40-60 nM. The format is functional, cell-based.
Assay [2] relates to ECa-109 cell line. Kind of assay: Induction of cell cycle arrest in human EC109 cells assessed as downregulation of Wee1 phosphorylation level at 40 to 60 nM measured after 48 hrs by Western blot analysis. The format is functional, cell-based. The settings on record: dose 40-60 nM.
In assay [3] the test system is ECa-109 cell line. Kind of assay: Induction of cell cycle arrest in human EC109 cells assessed as accumulation of cells at G2/M phase at 0 to 40 nM measured after 48 hrs by propidium iodide staining based flow cytometry analysis (reference value: 14.57%). In kind it is functional. The settings on record: dose 0-40 nM.
Assay [4] deals with KYSE-30. Kind of assay: Antiproliferative activity against human KYSE-30 cells assessed as reduction in cell viability by CCK-8 method. The format is functional, cell-based. The settings on record: time 12-48 hrs, TDE = time-dependent effect.
Assay [5] relates to ECa-109 cell line. The assay is described as follows: Induction of apoptosis in human EC109 cells measured after 48 hrs by annexin V-FITC and PI staining based flow cytometry analysis. In kind it is functional, cell-based. The settings on record: dose 20-40 nM.
Assay [6] has as its system KYSE-30. Kind of assay: Induction of apoptosis in human KYSE-30 cells assessed as effect on bax level at 40 to 60 nM by flow cytometry analysis. The format is functional, cell-based. The settings on record: dose 40-60 nM.
The test system of assay [7] is ECa-109. Kind of assay: Effect on MST1 level in human EC109 cells at 40 to 60 nM measured after 48 hrs. The format is functional, cell-based. The settings on record: dose 40-60 nM.
Assay [8] relates to ECa-109 cell line. The assay is described as follows: Induction of apoptosis in human EC109 cells assessed as increase in caspase 3 activity at 40 to 100 nM measured after 48 hrs by Western blot analysis. The format is functional, cell-based. The settings on record: dose 40-100 nM.
The subject of assay [9] is KYSE-30. The assay is described as follows: Induction of apoptosis in human KYSE-30 cells assessed as increase in cleaved caspase 3 level at 40 to 100 nM measured after 48 hrs by Western blot analysis. In kind it is functional, cell-based. The settings on record: dose 40-100 nM.
Assay [10] relates to KYSE-30. Kind of assay: Induction of apoptosis in human KYSE-30 cells assessed as increase in caspase 3 activity at 40 to 100 nM measured after 48 hrs by Western blot analysis. In kind it is functional, cell-based. The settings on record: dose 40-100 nM.
Assay [11] deals with ECa-109. The assay is described as follows: Downregulation of MST phosphorylation level in human EC109 cells at 40 to 60 nM measured after 48 hrs. The format is functional, cell-based. The settings on record: dose 40-60 nM.
For assay [12], the system named is ECa-109 cell line. Kind of assay: Induction of apoptosis in human EC109 cells assessed as downregulation of XIAP level at 40 to 60 nM by flow cytometry analysis. In kind it is functional, cell-based. The settings on record: dose 40-60 nM.
The subject of assay [13] is ECa-109 cell line. Kind of assay: Antiproliferative activity against human EC109 cells assessed as reduction in cell viability measured after 48 hrs by CCK-8 method. In kind it is functional, cell-based. The settings on record: dose 10-70 nM.
The target in a further assay is Tubulin. Kind of assay: Inhibition of tubulin polymerization (unknown origin) measured upto 4500 secs by fluorescence based analysis. The format is protein-complex assay, Homo sapiens.
The test system of assay [14] is ECa-109 cell line. Kind of assay: Induction of apoptosis in human EC109 cells assessed as increase in total number of apoptotic cells at 40 nM measured after 48 hrs by annexin V-FITC and PI staining based flow cytometry analysis (reference value: 4.93%). In kind it is functional.
In assay [15] the test system is KYSE-30. The assay is described as follows: Induction of apoptosis in human KYSE-30 cells assessed as downregulation of Bcl-2 level at 40 to 60 nM by flow cytometry analysis. In kind it is functional, cell-based. The settings on record: dose 40-60 nM.
For assay [16], the system named is ECa-109 cell line. The assay is described as follows: Induction of apoptosis in human EC109 cells assessed as increase in Noxa expression level at 40 to 60 nM by flow cytometry analysis. The format is functional, cell-based. The settings on record: dose 40-60 nM.
The subject of assay [17] is ECa-109. The assay is described as follows: Downregulation of YAP level in human EC109 cells at 60 nM incubated for 48 hrs in presence of MG132. In kind it is functional, cell-based.
The subject of assay [18] is KYSE-30. Kind of assay: Induction of apoptosis in human KYSE-30 cells measured after 48 hrs by annexin V-FITC and PI staining based flow cytometry analysis. The format is functional, cell-based. The settings on record: dose 20-40 nM.
The test system of assay [19] is KYSE-30. The assay is described as follows: Induction of apoptosis in human KYSE-30 cells assessed as increase in cleaved PARP level at 40 to 100 nM measured after 48 hrs by Western blot analysis. The format is functional, cell-based. The settings on record: dose 40-100 nM.
Assay [20] concerns ECa-109 cell line. Kind of assay: Antiproliferative activity against human EC109 cells assessed as reduction in cell viability by CCK-8 method. In kind it is functional, cell-based. The settings on record: time 12-48 hrs, TDE = time-dependent effect.
The test system of the next assay is Cell membrane. The assay is described as follows: Induction of mitochondrial membrane depolarization in human KYSE-30 cells assessed as increase in caspase 9 activity at 40 to 60 nM incubated for 24 hrs by flow cytometry analysis. In kind it is cell membranes. The settings on record: dose 40-60 nM.
In another assay the target is Tubulin (Homo sapiens) (UniProt P68371+Q9H4B7+P0DPH7+P68366+Q13509+Q71U36+P04350+Q3ZCM7+P07437+P68363+Q9BQE3+Q6PEY2+Q13885+Q9BVA1+Q9BUF5). The assay is described as follows: Inhibition of tubulin polymerization (unknown origin) at 0.3 to 3 uM measured upto 4500 secs by fluorescence based analysis. In kind it is protein-complex assay. The settings on record: dose 0.3-3 µM, time <= 4500.0 sec.

The test system of assay [21] is ECa-109 cell line. The assay is described as follows: Induction of apoptosis in human EC109 cells assessed as effect on bak level at 40 to 60 nM by flow cytometry analysis. The settings on record: dose 40-60 nM. The format is functional, cell-based.

The source made the active and inactive calls. The calls are words filed in the database; no cut-off is given here.

`COc1ccc(CN(C(=O)Cn2cc(CSc3nc4ccccc4s3)nn2)c2cc(OC)c(OC)c(OC)c2)cc1O`: the result in the assay on ECa-109 cell line [1], in the assay on KYSE-30 [6], with ECa-109 [7], with ECa-109 [17] and with ECa-109 cell line [21] was inactive. In addition, the outcome with ECa-109 cell line [2], in the assay on ECa-109 cell line [8], in the assay with KYSE-30 [9], with KYSE-30 [10], in the assay with ECa-109 [11] and with ECa-109 cell line [12] was Active. Besides, the result in the assay with KYSE-30 [15], in the assay on ECa-109 cell line [16], with KYSE-30 [19] and with Cell membrane was Active. The Activity in the assay with ECa-109 cell line [3] is 55.65%; in the assay with KYSE-30 [4] it was “Tde”; in the assay on ECa-109 cell line [5], “Dose-Dependent Effect”; with ECa-109 cell line [13], “Dose-Dependent Effect”; in the assay on ECa-109 cell line [14], 31.07%; in the assay on KYSE-30 [18], “Dose-Dependent Effect”. Further, the Activity entry in the assay with ECa-109 cell line [20] was “Tde”. Further, on Tubulin, the IC50 is 446 nM. For the same compound, the inhibition entry on Tubulin (Homo sapiens) was “Active”.
